Data on nine compounds can be found in patent publication US20260015350A1, “AZAQUINAZOLINE PAN-KRAS INHIBITORS” (Mirati Therapeutics, Inc., priority 2022, published 2026).

Molecules are shown by their SMILES.

The target of assay [1] is T1, KRas^G12V (Homo sapiens, UniProt P01116, G12V).
T1 construct: Biotinylated KRas (corresponding to amino acids 1-169, produced at Accelegan Inc.); biotin (biotinylated); purchased Accelegan Inc
Put plainly: KRas binding assay (TR-FRET tracer displacement), KRas G12V. Background: In TR-FRET formats the signal depends on donor and acceptor labels being close together.

For assay [2], the system named is KRas-mediated phosphorylation of ERK in MKN1 cells. Briefly: Inhibition of KRas-mediated phosphorylation of ERK (Cisbio HTRF pERK), MKN1 cells. The conditions noted are these: Homo sapiens, MKN-1. The class given is cell-based. The essentials:
(§1)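 Phospho-ERK is quantified by HTRF with the Advanced pERK kit. Cells go in at 6,000/well in RPMI plus 10% FBS overnight at 37° C. under 5% CO2, with a 4-hour covered room-temperature incubation ahead of the read.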

Assay [3] deals with KRas-mediated phosphorylation of ERK in AsPC-1 cells. Put plainly: Inhibition of KRas-mediated phosphorylation of ERK (Cisbio HTRF pERK), AsPC-1 cells. The class given is cell-based. The conditions noted are these: Homo sapiens, ASPC1, AsPC-1 cells; HTRF pERK. Summed up: (§2)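 Signal read by HTRF (d2/Cryptate antibody pair, 2 hr room-temperature incubation on lysate). Cells: 6,000 per well, 3 hr compound exposure. Titration: 10 uM highest, 3-fold, 10 points.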

In assay [4] the target is T2, KRas^WT (Homo sapiens, UniProt P01116).
T2 construct: Biotinylated KRas (corresponding to amino acids 1-169, produced at Accelegan Inc.); biotin (biotinylated); purchased Accelegan Inc
T2 sequence (P01116 1-169 isoform P01116-2): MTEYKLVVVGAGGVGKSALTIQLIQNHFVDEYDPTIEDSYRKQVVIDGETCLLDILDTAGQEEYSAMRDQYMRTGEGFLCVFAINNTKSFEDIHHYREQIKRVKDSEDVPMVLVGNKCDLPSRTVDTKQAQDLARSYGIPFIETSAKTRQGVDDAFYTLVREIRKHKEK
Briefly: KRas binding assay (TR-FRET tracer displacement), KRas WT. Particulars: TR-FRET tracer displacement, KRas WT.

Assay [5] deals with T3, KRas^G12D (Homo sapiens, UniProt P01116, G12D).
T3 construct: Biotinylated KRas (corresponding to amino acids 1-169, produced at Accelegan Inc.); biotin (biotinylated); purchased Accelegan Inc
T3 sequence (P01116 1-169 isoform P01116-2 G12D): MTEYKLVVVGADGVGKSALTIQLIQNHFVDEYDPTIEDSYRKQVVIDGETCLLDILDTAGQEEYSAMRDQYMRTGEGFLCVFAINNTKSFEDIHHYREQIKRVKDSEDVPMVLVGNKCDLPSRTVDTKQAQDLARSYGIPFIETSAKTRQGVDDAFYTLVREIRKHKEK
Briefly: KRas binding assay (TR-FRET tracer displacement), KRas G12D.

Assay [6] addresses T4, KRas^G12C (Homo sapiens, UniProt P01116, G12C).
T4 construct: Biotinylated KRas (corresponding to amino acids 1-169, produced at Accelegan Inc.); biotin (biotinylated); purchased Accelegan Inc
Briefly: KRas binding assay (TR-FRET tracer displacement), KRas G12C. The conditions noted are these: TR-FRET tracer displacement, KRas G12C.

The target in assay [7] is T5, KRas^G12S (Homo sapiens, UniProt P01116, G12S).
T5 construct: Biotinylated KRas (corresponding to amino acids 1-169, produced at Accelegan Inc.); biotin (biotinylated); purchased Accelegan Inc
T5 sequence (P01116 1-169 isoform P01116-2 G12S): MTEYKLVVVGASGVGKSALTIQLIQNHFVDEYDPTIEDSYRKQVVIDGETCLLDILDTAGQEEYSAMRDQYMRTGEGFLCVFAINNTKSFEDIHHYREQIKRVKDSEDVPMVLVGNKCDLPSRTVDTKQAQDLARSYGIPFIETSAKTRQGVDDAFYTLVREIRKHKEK
Put plainly: KRas binding assay (TR-FRET tracer displacement), KRas G12S. Particulars: TR-FRET tracer displacement, KRas G12S.

Assay [8] relates to KRas-mediated phosphorylation of ERK in H727 cells. Briefly: Inhibition of KRas-mediated phosphorylation of ERK (Cisbio HTRF pERK), H727 cells. The assay is classed as cell-based. Particulars: Homo sapiens, NCI-H727, H727 cells; HTRF pERK. Summed up: as §2
For assay [9], the system named is KRas-mediated phosphorylation of ERK in PSN1 cells. Put plainly: Inhibition of KRas-mediated phosphorylation of ERK (Cisbio HTRF pERK), PSN1 cells. The assay is classed as cell-based. The conditions noted are these: Homo sapiens. Summed up:
as §1

Assay [10] concerns KRas-mediated phosphorylation of ERK in HCT116 cells. Put plainly: Inhibition of KRas-mediated phosphorylation of ERK (Cisbio HTRF pERK), HCT116 cells. The assay is classed as cell-based. Particulars: Homo sapiens, HCT-116, HTRF pERK. Summed up: (§3)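 Using 6,000 cells per well, compounds are applied for 3 hrs and cells then lysed at 4° C with shaking for 40 mins. Phospho-ERK is measured by HTRF after 2 hrs of lysate incubation with the d2/Cryptate antibody mixture.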

Assay [11] deals with KRas-mediated phosphorylation of ERK in H460 cells. Put plainly: Inhibition of KRas-mediated phosphorylation of ERK (Cisbio HTRF pERK), H460 cells. Particulars: Homo sapiens, NCI-H460, HTRF pERK. The assay is classed as cell-based. Summed up:
as §2

Assay [12] relates to KRas-mediated phosphorylation of ERK in H358 cells. Briefly: Inhibition of KRas-mediated phosphorylation of ERK (Cisbio HTRF pERK), H358 cells. The class given is cell-based. Particulars: Homo sapiens, NCI-H358, HTRF pERK. The essentials:
as §2

Assay [13] relates to KRas-mediated phosphorylation of ERK in A549 cells. Briefly: Inhibition of KRas-mediated phosphorylation of ERK (Cisbio HTRF pERK), A549 cells. The conditions noted are these: Homo sapiens, HTRF pERK. The class given is cell-based. Summed up:
as §3

By IC50 is commonly meant the concentration needed to halve the response being measured. A higher IC50 goes with lower potency.

T4 sequence (P01116 1-169 isoform P01116-2 G12C): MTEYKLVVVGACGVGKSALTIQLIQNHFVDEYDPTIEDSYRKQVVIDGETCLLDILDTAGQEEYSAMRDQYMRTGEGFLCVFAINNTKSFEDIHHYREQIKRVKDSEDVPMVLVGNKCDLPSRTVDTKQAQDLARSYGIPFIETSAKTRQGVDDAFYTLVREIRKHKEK
T1 sequence (P01116 1-169 isoform P01116-2 G12V): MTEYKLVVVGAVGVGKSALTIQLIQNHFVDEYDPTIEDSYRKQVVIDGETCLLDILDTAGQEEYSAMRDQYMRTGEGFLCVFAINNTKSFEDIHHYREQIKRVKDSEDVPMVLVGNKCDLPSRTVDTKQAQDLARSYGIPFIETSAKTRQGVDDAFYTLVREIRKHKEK

`CCc1c(F)ccc2cc(O)cc(-c3ncc4c(N5C[C@@H]6C[C@H](C5)[C@H](O)C6)nc(OC[C@@]56CCCN5C[C@@H](F)C6)nc4c3F)c12` [Example 927, (1R,5R,6R)-3-(7-(8-ethyl-7-fluoro-3-hydroxynaphthalen-1-yl)-8-fluoro-2-(((2S,7aS)-2-fluorotetrahydro-1H-pyrrolizin-7a(5H)-yl)methoxy)pyrido[4,3-d]pyrimidin-4-yl)-3-azabicycle[3.2.1]octan-6-ol]: the IC50 worked out at 4 nM in [1]; 17 nM in [2]; 468 nM in assay [3]; 6 nM in assay [4]; 13 nM in [5]; 7 nM in assay [6]. In addition, the IC50 was 5 nM in [7], 202 nM in assay [8] and greater than 10000 nM in assay [9].
Take `CCc1c(F)ccc2cc(O)cc(-c3ncc4c(N5C[C@@H]6C[C@H](C5)[C@H](O)C6)nc(OC[C@@]56CCCN5C[C@H](OC)C6)nc4c3F)c12` [Example 926, (1R,5R,6R)-3-(7-(8-ethyl-7-fluoro-3-hydroxynaphthalen-1-yl)-8-fluoro-2-(((2R,7aS)-2-methoxytetrahydro-1H-pyrrolizin-7a(5H)-yl)methoxy)pyrido[4,3-d]pyrimidin-4-yl)-3-azabicyclo[3.2.1]octan-6-ol]: the concentration for half-maximal inhibition (IC50) in assay [1] was less than 2 nM; in assay [2] it was 0.7 nM; in assay [3] it was 66 nM; in assay [4], less than 2 nM; in assay [5], 2 nM; in assay [6] it was less than 2 nM. Further, the IC50 in assay [7] is less than 2 nM; in assay [8] it was 29 nM; in assay [9] it was 3000 nM.
For the compound `CCc1c(F)ccc2cc(O)cc(-c3ncc4c(N5C[C@@H]6C[C@H](C5)[C@H](O)C6)nc(OCC56CCCN5C(C)CC6)nc4c3F)c12` (stereo partly drawn) [Example 928, (1R,5R,6R)-3-(7-(8-ethyl-7-fluoro-3-hydroxynaphthalen-1-yl)-8-fluoro-2-((3-methyltetrahydro-1H-pyrrolizin-7a(5H)-yl)methoxy)pyrido[4,3-d]pyrimidin-4-yl)-3-azabicyclo[3.2.1]octan-6-ol], the IC50 in [1] is less than 2 nM; in assay [2], 3 nM; in assay [3], 74 nM; in [4] it was less than 2 nM; in assay [5], 2 nM; in assay [6] it was less than 2 nM. The results for the IC50 in assay [7], in assay [8] and in assay [9] were less than 2 nM, 33 nM and 2840 nM, respectively.
With `C[C@@H]1C[C@@H]1c1c(Cl)cc(O)cc1-c1ncc2c(N3CCC[C@]4(C3)NC(=O)NC4=O)nc(OCC34CCCN3C/C(=C\F)C4)nc2c1F` (stereo partly drawn) [Example 937, (5R)-7-(7-(3-chloro-5-hydroxy-2-((1S,2R)-2-methylcyclopropyl)phenyl)-8-fluoro-2-(((Z)-2-(fluoromethylene)tetrahydro-1H-pyrrolizin-7a(5H)-yl)methoxy)pyrido[4,3-d]pyrimidin-4-yl)-1,3,7-triazaspiro[4.5]decane-2,4-dione], the 50% inhibitory concentration (IC50) in [1] is less than 2 nM; in assay [2] it was 1 nM; in assay [3], 116 nM; in [4], less than 2 nM; in [5] it was less than 2 nM; in assay [10], 88 nM. The IC50 in [11] is 36 nM; in assay [12], 12 nM; in [6], less than 2 nM; in [7], less than 2 nM; in assay [8], 116 nM; in [13], 55 nM.
Consider `C/C=C1/CN2CCCC2(COc2nc(N3C[C@@H]4C[C@H](C3)[C@H](O)C4)c3cnc(-c4cc(O)cc5ccc(F)c(CC)c45)c(F)c3n2)C1` (stereo partly drawn) [Example 939, (1R,5R,6R)-3-(7-(8-ethyl-7-fluoro-3-hydroxynaphthalen-1-yl)-2-(((E)-2-ethylidenetetrahydro-1H-pyrrolizin-7a(5H)-yl)methoxy)-8-fluoropyrido[4,3-d]pyrimidin-4-yl)-3-azabicyclo[3.2.1]octan-6-ol], for which the concentration for half-maximal inhibition (IC50) in [1] is less than 2 nM; in [2], 0.1 nM; in [3], 32 nM; in assay [4], less than 2 nM; in assay [5], less than 2 nM; in assay [10] it was 27 nM. The half-maximal inhibitory concentration (IC50) is 18 nM in assay [11]; 5 nM in assay [12]; less than 2 nM in assay [6]; less than 2 nM in assay [7]; 28 nM in assay [8]; 11 nM in assay [13].
For the compound `C=C1CN2CCCC2(COc2nc(N3CCCC(C)(O)C3)c3cnc(-c4cc(O)cc5ccc(F)c(CC)c45)c(F)c3n2)C1` (stereo in doubt) [Example 797, (3R)-1-(7-(8-ethyl-7-fluoro-3-hydroxynaphthalen-1-yl)-8-fluoro-2-((2-methylenetetrahydro-1H-pyrrolizin-7a(5H)-yl)methoxy)pyrido[4,3-d]pyrimidin-4-yl)-3-methylpiperidin-3-ol], the IC50 in assay [1] is less than 2 nM; in assay [3], 1 nM; in assay [4], less than 2 nM; in [5] it was less than 2 nM; in assay [10], 10 nM; in assay [11], 3 nM. The IC50 was 1 nM in [12]; less than 2 nM in [6]; less than 2 nM in assay [7]; 4 nM in assay [8]; 296 nM in [9]; 3 nM in [13].
Regarding `C[C@@H]1C[C@@H]1c1c(Cl)cc(O)cc1-c1ncc2c(N3CCCn4nc(C(=O)N(C)C)cc4C3)nc(OC[C@@]34CCCN3C[C@H](F)C4)nc2c1F` [Example 933, 5-(7-(3-chloro-5-hydroxy-2-((1S,2R)-2-methylcyclopropyl)phenyl)-8-fluoro-2-(((2R,7aS)-2-fluorotetrahydro-1H-pyrrolizin-7a(5H)-yl)methoxy)pyrido[4,3-d]pyrimidin-4-yl)-N,N-dimethyl-5,6,7,8-tetrahydro-4H-pyrazolo[1,5-a][1,4]diazepine-2-carboxamide], the IC50 in assay [1] is less than 2 nM; in [2], 11 nM; in assay [3] it was 29 nM; in assay [4], 4 nM; in assay [5], less than 2 nM; in [10], 526 nM. For the same compound, the half-maximal inhibitory concentration (IC50) in assay [11] is 287 nM; in [12] it was 18 nM; in assay [6], less than 2 nM; in [7], less than 2 nM; in [8] it was 70 nM; in assay [13], 202 nM.
Consider `C=C1CN2CCCC2(COc2nc(N3CCCC4(CNS(=O)(=O)N4)C3)c3cnc(-c4cc(O)cc5ccc(F)c(CC)c45)c(F)c3n2)C1` (stereo not drawn) [Example 940, 7-(7-(8-ethyl-7-fluoro-3-hydroxynaphthalen-1-yl)-8-fluoro-2-((2-methylenetetrahydro-1H-pyrrolizin-7a(5H)-yl)methoxy)pyrido[4,3-d]pyrimidin-4-yl)-2-thia-1,3,7-triazaspiro[4.5]decane 2,2-dioxide], for which the IC50 in [1] is less than 2 nM; in assay [2] it was 2 nM; in assay [3], 42 nM; in assay [4], less than 2 nM; in [5], less than 2 nM; in assay [10], 43 nM. In addition, the 50% inhibitory concentration (IC50) was 17 nM in [11]; 10 nM in assay [12]; less than 2 nM in [6]; less than 2 nM in [7]; 72 nM in assay [8]; 33 nM in assay [13].
As to `C[C@@H]1C[C@@H]1c1c(Cl)cc(O)cc1-c1ncc2c(N3CCCn4nc(C(=O)N(C)C)cc4C3)nc(OCC34CCCN3C/C(=C\F)C4)nc2c1F` (stereo partly drawn) [Example 936, 5-(7-(3-chloro-5-hydroxy-2-((1S,2R)-2-methylcyclopropyl)phenyl)-8-fluoro-2-(((Z)-2-(fluoromethylene)tetrahydro-1H-pyrrolizin-7a(5H)-yl)methoxy)pyrido[4,3-d]pyrimidin-4-yl)-N,N-dimethyl-5,6,7,8-tetrahydro-4H-pyrazolo[1,5-a][1,4]diazepine-2-carboxamide], the IC50 was less than 2 nM in assay [1]; 2 nM in [2]; 17 nM in assay [3]; 3 nM in assay [4]; less than 2 nM in assay [5]; 262 nM in assay [10]. The IC50 in [11] was 104 nM; in [12] it was 11 nM; in assay [6], 2 nM; in [7], less than 2 nM; in [8], 25 nM; in [13], 71 nM.
